Test results as given in publication PMC5917010, “Structural basis for GPR40 allosteric agonism and incretin stimulation” (Nature Communications, 2018).

Legend:
GPR40 KO mice = assay: OGTT in GPR40 KO mice; format: in vivo, mouse; details: high dose of compound 1
Procedure: Eight to thirteen week old male C57BL/6 or KO mice were used. The day before the study, at 1600 hours, animals were transferred into clean cages and food was removed. The following morning (~0800 hours), mice were randomized by block randomization to treatment groups (N = 5–7 per group) so each group had similar mean and standard deviation of body weight and blood glucose. […] Animals were dosed with vehicle (0.5% MC/0.25% Tween-80) or the test article by oral gavage. Group allocations were not blinded from the experimenters who collected the data. After 60 min compound treatment animals were then given an oral gavage of glucose (2 g/kg). At 0, 15, 30, 60, and 120 min post oral glucose, two glucose readings via glucometers were obtained. The average of two glucose readings was reported at each time point. Data were expressed as mean±standard error (s.e.m.). Blood glucose values were analyzed using ANOVA with repeated measures. Cook’s distance was also calculated from linear regression. All animals were included in the analysis with their individual averaged Cook’s distance < 1. Dunnett’s comparison was performed at each time point by R program. Significance is denoted at p < 0.05.

[1] = test system: GPR40 knock-out (KO) mice; assay: IPGTT in GPR40 knock-out mice; format: in vivo, mouse; details: high dose of compound 1
Procedure: Nine to ten week old male ICR mice (Envigo) and GPR40 KO mice (Taconic) were used. The day before an IPGTT (~1600), animals were fasted in clean cages. The following morning (~0800), animals were randomized on fasting glucose and body weight (N = 6 per group). Mice were orally administered a test article or vehicle 60 min prior to an intraperitoneal (IP) injection of glucose (2g/kg). Blood glucose levels were determined by a glucometer from tail bleeds taken at 0, 15, 30, 60, and 120 min after the glucose challenge. An average of two readings were reported at each time point. Also, blood samples were collected into serum tubes at 0, 3, 6, and 15 min post glucose injection for insulin measurement. Serum tubes were centrifuged at 3000g for 5 min and serum transferred into 96-well plates for insulin analysis by a Mesoscale rat/mouse insulin assay.

human GPR40 (A2 site) = molecular target: T1, human GPR40 (A2 site) (Homo sapiens, UniProt O14842); assay: A2 site radioligand binding with [3H]-AM-1638; details: Supplementary Table 1; read-out: Human GPR40 Binding to A2 Ki
T1 construct: full length recombinant human GPR40 (GPR40) cDNA; expressed in transfected cells; host or cells: HEK 293, stably transfected; crude cell surface membranes
Procedure: (§1) Crude cell surface membranes were prepared from human embryonic kidney 293 (HEK 293) cells stably transfected (for the wild type) or transiently transfected (for the mutants and corresponding wild type) with full length recombinant human GPR40 (GPR40) cDNA, using differential centrifugation methods.
A2 Site Binding. 10 µL of compound diluted in 100% DMSO and 90 µL of Assay Buffer (50 mM Tris-HCl, pH 7.5, 10 mM CaCl2, 10 mM MgCl2, 0.1% w/v Bacitracin, 2.5% w/v dextran charcoal-treated FBS) were added to a deep 96-well polypropylene assay plate (Beckman Coulter). Two hundred μl of [^3H]-AM-1638 (84 Ci/mmol, Quotient Bioresearch Radiochemicals, Ltd.; 0.5 nM final concentration) and 200 µL of GPR40 membranes (5 µg/well), both diluted in Assay Buffer, were added to the assay plate, followed by a 1 min shake and a 1 h incubation at room temperature (22 °C).
(§2) Assays were terminated by filtration through GF/C glass fiber filtermats (Perkin Elmer) presoaked in 50 mM Tris–HCl, pH 7.5, using a Mach III cell harvester (TomTec). Filtermats were washed two times with 5 mL of ice-cold 50 mM Tris–HCl, pH 7.5 buffer, dried 1 h in a convection oven at 60 °C and embedded with Meltilex A solid scintillant (Perkin Elmer). Radioactivity was determined as counts per min (cpm) using a Trilux Microbeta plate scintillation counter (Perkin Elmer).

human GPR40 (A1 site) = molecular target: T2, human GPR40 (A1 site) (Homo sapiens, UniProt O14842); assay: A1 site radioligand binding with [3H]-TAK-875; details: Supplementary Table 1
T2 construct: full length recombinant human GPR40 (GPR40) cDNA; expressed in transfected cells; host or cells: HEK 293, stably transfected; crude cell surface membranes
Procedure: as §1
A1 Site Binding. 10 µL of compound diluted in 100% DMSO and 90 µL of Assay Buffer (50 mM Tris-HCl, pH 7.5, 5 mM CaCl2, 5 mM MgCl2, 0.1% w/v fatty acid-free BSA) were added to a deep 96-well polypropylene assay plate (Beckman Coulter).
as §2

human GPR40 [2] = molecular target: T3, human GPR40 (Homo sapiens, UniProt O14842); assay: Human GPR40 Calcium (Supplementary Table 1); format: cell-based
T3 construct: HEK293 cells stably overexpressing full length human GPR40; expressed in transfected cells

human GPR40 [3] = molecular target: T3, human GPR40; assay: Human GPR40 b-arrestin; format: cell-based
Mouse GPR40 = Mouse GPR40 (Mus musculus, UniProt Q76JU9); assay: Mouse GPR40 b-arrestin; format: cell-based
Rat GPR40 = Rat GPR40 (Rattus norvegicus, UniProt Q8K3T4); assay: Rat GPR40 b-arrestin; format: cell-based
human GPR40 [4] = molecular target: T3, human GPR40; assay: Human GPR40 IP1; format: cell-based
Human GPR120 [5] = molecular target: T4, Human GPR120 (Homo sapiens, UniProt Q5NUL3); assay: Human GPR120 binding; details: Supplementary Table 1
T4 sequence (Q5NUL3 1-361): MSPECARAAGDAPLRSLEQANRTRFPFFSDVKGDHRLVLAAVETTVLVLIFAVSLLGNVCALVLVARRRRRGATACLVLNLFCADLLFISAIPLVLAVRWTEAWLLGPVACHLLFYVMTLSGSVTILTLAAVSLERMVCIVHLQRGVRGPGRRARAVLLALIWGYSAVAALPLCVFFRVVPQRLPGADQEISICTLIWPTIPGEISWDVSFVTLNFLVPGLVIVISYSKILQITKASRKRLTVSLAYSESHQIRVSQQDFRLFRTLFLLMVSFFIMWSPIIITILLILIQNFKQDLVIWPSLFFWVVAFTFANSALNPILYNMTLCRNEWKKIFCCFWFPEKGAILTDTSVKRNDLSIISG

Human GPR120 [6] = molecular target: T4, Human GPR120; assay: Human GPR120 Calcium (FLIPR); format: cell-based; details: Supplementary Table 1
Human GPR120 [7] = molecular target: T4, Human GPR120; assay: Human GPR120 b-arrestin; format: cell-based; details: Supplementary Table 1
Mouse GPR120 = molecular target: T5, Mouse GPR120 (Mus musculus, UniProt Q7TMA4); assay: Mouse GPR120 b-arrestin; format: cell-based; details: Supplementary Table 1
T5 sequence (Q7TMA4 1-361): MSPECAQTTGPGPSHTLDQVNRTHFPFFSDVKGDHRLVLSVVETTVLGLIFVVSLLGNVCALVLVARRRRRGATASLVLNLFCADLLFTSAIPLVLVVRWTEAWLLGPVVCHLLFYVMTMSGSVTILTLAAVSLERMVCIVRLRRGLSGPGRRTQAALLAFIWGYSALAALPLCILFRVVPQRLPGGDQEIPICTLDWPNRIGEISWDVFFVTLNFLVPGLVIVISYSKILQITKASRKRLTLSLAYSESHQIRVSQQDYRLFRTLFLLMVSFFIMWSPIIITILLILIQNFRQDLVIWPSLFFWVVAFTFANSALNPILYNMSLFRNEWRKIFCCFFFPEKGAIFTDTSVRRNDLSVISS

human PPARalpha = molecular target: T6, human PPARalpha (Homo sapiens, UniProt Q07869); assay: human PPARalpha binding; details: Supplementary Table 1
T6 sequence (Q07869 1-468): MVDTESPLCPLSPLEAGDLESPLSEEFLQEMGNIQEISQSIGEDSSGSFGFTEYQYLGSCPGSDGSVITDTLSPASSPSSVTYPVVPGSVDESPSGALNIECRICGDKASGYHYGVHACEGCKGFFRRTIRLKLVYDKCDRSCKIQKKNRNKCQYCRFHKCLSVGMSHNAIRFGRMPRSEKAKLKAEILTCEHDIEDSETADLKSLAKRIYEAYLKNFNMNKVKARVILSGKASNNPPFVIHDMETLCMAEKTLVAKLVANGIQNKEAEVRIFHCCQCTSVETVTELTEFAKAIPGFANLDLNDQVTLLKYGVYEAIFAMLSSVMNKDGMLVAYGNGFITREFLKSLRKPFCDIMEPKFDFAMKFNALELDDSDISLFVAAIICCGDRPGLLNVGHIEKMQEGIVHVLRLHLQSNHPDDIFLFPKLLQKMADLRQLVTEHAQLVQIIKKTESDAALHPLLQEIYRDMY

human PPARdelta = molecular target: T7, human PPARdelta (Homo sapiens, UniProt Q03181); assay: human PPARdelta binding; details: Supplementary Table 1
T7 sequence (Q03181 1-441): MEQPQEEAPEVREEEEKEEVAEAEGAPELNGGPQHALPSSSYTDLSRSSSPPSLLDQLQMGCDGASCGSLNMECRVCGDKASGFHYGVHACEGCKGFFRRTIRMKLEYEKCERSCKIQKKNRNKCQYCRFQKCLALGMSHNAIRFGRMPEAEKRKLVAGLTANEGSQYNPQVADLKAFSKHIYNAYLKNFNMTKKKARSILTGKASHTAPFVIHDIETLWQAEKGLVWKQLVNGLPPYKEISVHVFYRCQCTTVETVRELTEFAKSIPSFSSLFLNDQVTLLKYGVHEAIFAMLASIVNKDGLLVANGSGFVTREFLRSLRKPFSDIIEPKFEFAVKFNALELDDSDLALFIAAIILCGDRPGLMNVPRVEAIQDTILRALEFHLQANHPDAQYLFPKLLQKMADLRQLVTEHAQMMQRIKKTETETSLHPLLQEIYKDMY

human PPARgama = molecular target: T8, human PPARgama (Homo sapiens, UniProt P37231); assay: human PPARgamma binding; details: Supplementary Table 1
T8 sequence (P37231 1-505): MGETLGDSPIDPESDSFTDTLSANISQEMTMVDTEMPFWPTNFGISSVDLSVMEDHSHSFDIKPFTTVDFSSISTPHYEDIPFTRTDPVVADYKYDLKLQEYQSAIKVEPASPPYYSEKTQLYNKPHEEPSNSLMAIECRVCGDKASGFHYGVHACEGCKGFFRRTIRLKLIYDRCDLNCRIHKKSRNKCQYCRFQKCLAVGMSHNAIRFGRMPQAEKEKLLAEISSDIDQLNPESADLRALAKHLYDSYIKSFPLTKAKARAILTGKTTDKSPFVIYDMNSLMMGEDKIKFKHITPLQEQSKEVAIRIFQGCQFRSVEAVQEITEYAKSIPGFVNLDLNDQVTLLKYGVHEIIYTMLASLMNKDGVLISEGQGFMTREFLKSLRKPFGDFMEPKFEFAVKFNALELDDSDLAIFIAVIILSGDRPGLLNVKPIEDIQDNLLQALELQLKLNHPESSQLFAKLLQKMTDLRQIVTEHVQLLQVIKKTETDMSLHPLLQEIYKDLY

T3 sequence (O14842 whole entry): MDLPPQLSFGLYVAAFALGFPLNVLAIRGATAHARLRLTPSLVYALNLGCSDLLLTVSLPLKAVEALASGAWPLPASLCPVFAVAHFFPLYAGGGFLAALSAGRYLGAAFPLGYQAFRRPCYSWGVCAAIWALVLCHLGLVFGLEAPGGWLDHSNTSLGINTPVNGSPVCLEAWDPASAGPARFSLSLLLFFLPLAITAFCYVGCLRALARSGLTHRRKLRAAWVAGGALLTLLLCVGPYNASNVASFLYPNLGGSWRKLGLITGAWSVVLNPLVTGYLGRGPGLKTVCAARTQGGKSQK
Chain of Rat GPR40 (Q8K3T4 whole entry): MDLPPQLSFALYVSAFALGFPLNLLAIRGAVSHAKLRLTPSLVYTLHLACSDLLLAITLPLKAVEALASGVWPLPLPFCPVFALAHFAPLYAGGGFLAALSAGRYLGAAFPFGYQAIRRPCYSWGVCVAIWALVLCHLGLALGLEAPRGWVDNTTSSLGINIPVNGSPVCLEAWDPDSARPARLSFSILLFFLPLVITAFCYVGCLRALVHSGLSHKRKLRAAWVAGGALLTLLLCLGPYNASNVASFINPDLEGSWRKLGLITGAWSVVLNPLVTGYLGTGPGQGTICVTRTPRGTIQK
Chain of Mouse GPR40 (Q76JU9 whole entry): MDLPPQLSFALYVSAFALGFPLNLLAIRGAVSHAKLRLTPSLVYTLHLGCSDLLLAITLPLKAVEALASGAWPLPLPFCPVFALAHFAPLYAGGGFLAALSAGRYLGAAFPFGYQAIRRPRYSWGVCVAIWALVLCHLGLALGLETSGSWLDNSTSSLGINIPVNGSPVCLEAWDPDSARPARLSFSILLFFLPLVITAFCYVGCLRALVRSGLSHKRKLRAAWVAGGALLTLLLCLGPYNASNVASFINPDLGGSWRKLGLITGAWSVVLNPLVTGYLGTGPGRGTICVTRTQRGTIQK
T1 sequence (O14842 whole entry): as the sequence (O14842 whole entry) above
T2 sequence (O14842 whole entry): as above

Molecule | Ki (human GPR40 (A2 site)) [nM] | Ki (human GPR40 (A1 site)) [nM] | EC50 (human GPR40 [2]) [nM] | Emax (human GPR40 [2]) [%] | EC50 (human GPR40 [3]) [nM] | Emax (human GPR40 [3]) [%] | EC50 (Mouse GPR40) [nM] | Emax (Mouse GPR40) [%] | EC50 (Rat GPR40) [nM] | Emax (Rat GPR40) [%] | EC50 (human GPR40 [4]) [nM] | Emax (human GPR40 [4]) [%] | EC50 (Human GPR120 [6]) [nM] | Ki (human PPARalpha) [nM] | IC50 (human PPARdelta) [nM] | Ki (human PPARgama) [nM] | further results
N[C@@H](CC(=O)N1CCn2c(nnc2C(F)(F)F)C1)Cc1cc(F)c(F)cc1F [sitagliptin, reference compound] | – | – | – | – | – | – | – | – | – | – | – | – | – | – | – | – | blood glucose in OGTT, GPR40 KO (GPR40 KO mice): respond to glucose lowering
semaglutide [reference compound] | – | – | – | – | – | – | – | – | – | – | – | – | – | – | – | – | glucose lowering in IPGTT, GPR40 KO [1]: can be triggered; insulin secretion in IPGTT, GPR40 KO [1]: can be triggered
CC#C[C@@H](CC(=O)O)c1ccc(OCc2ccc(CN3CCC4(C=Cc5ccccc54)CC3)cc2)cc1 [LY2881835] | > 3720 | 4.7 | 9.1 | 62 | 8.7 | 137 | 0.8 | 133 | 2 | 124 | 1.24 | 162 | > 50000 | > 10000 | > 10000 | > 10000 | Ki (Human GPR120 [5]): > 100000 nM; EC50 (Human GPR120 [7]): > 100000 nM; EC50 (Mouse GPR120): > 50000 nM
COc1ccc(F)c(-c2ccc(COc3cccc([C@@H](CC(=O)O)C4CC4)c3)cc2C2=CCCC2(C)C)c1 [AM-1638] | 1.4 | > 6910 | 1.7 | 98 | 16 | 153 | 22.7 | 112 | 105 | 113 | 0.25 | 197 | 2870 | 3170 | > 10000 | > 10000 | Emax (Human GPR120 [6]): 63%
